{
  "source": "patent US20250011651A1",
  "about": "“OIL DISPERSANT FORMULATION, METHODS AND USES THEREOF” (INSTITUTO SUPERIOR TÉCNICO, priority 2021, published 2025)",
  "assay": "Hydrophilic-lipophilic balance (HLB)",
  "format": "physicochemical",
  "conditions": "single surfactant / MEL mixture",
  "text": "Dispersants currently used in oil spills are usually a blend of non-ionic and anionic surfactants dissolved in a solvent base. Surfactants are amphiphilic molecules containing both hydrophobic and hydrophilic regions, so they are soluble in both oil and water phases. An empirical parameter used for the classification of surfactants is the hydrophilic-lipophilic balance (HLB) number. The HLB is defined as: […]\nWhere Mh is the molecular weight of the hydrophilic head group of the surfactant molecule, and M is the molecular mass of the complete molecule. HLB is given on a scale of 1-20. […] A surfactant with an HLB between 8 and 12 may promote either type of emulsion, but generally promotes O/W emulsions.\nIn an embodiment, the results can be explained by providing the molecular level discussion of the synergy between MEL and polyethylene glycol sorbitan monooleate molecules. As explained earlier, MELs are hydrophobic and polyethylene glycol sorbitan monooleate is quite hydrophilic and water soluble. The HLB of the combination of the two surfactants can be calculated by the following expression: […]\nWhere, WM and WPGSE are, respectively, the weight fraction of MELs and polyethylene glycol sorbitan ester, in particular polyethylene glycol sorbitan monooleate, in the blend.",
  "data": [
    {"substance": "polyethylene glycol sorbitan monooleate", "values": [
      {"measurement": "HLB", "value": 15}
    ]}
  ]
}
